Publication PMC3003687, “α-Galactosylceramide Analogs with Weak Agonist Activity for Human iNKT Cells Define New Candidate Anti-Inflammatory Agents” (PLoS ONE, 2010)

Tests used:
human iNKT cell clones [1] = experiment: Cytokine responses of iNKT cell clones, Hela-CD1d cells compared with monocyte-derived DC as APC; format: cell-based; details: limited analog concentrations
Excerpt: CD1d-transfected Hela cells might not be representative of the presentation by DCs, so we performed a comparative analysis, with more limited analog concentrations, between Hela-CD1d cells and monocyte-derived DC (Supplementary Figure S5). […] However we observed a higher cytokine levels produced upon stimulation with Hela cells, which can be explained by a higher CD1d expression.
Supplementary file pone.0014374.s005.tif: Figure S5 Comparison of cytokine responses of human iNKT cell clones between CD1d-transfected HeLa cells and Dendritic Cells, with a limited range of analog concentrations. CD1d-transfected HeLa cells (black bars) and monocyte-derived DCs (white bars) were incubated overnight in parallel with increasing concentrations of KRN7000, C20:2 (tested from left to right at 0.1, 1, 10 and 100 nM,) and higher concentrations of other analogs (10, 100 nM, 1 and 10 µM), then used as APC for iNKT cell stimulation. After 24 h of co-culture, supernatants were harvested, and cytokine levels were measured by ELISA. The sensitivity of detection was 27.4 pg/mL for IL-4 and 82.3 pg/mL for IL-13 and IFNγ. The data shown were generated with a CD4+ iNKT cell clone (HDD3) and a double negative (DN, HDE3). (0.12 MB TIF) Click here for additional data file.

[2] = test system: iNKT cells in PBMCs from healthy donors; experiment: Ex vivo staining of PBMCs from healthy donors with analog-loaded hCD1d tetramers; format: cell-based, human
Excerpt: Our panel of clones might be limited to iNKT cells able to expand upon PHA stimulation and might be representative of a fraction only of the iNKT cell repertoire. […] The frequencies of iNKT cells measured using tetramers loaded with N-aromatic branched analogs were lower in some or all PBMCs tested. A lower detection might be explained by weaker efficiency of staining, since lower MFI values were also seen with iNKT cell clones stained with tetramers loaded with these glycolipids.
Figure 4 Ex vivo analysis of PBMC with CD1d tetramers loaded with αGalCer analogs. (A) Flow cytometric analyses were performed after labeling of PBMCs from healthy donors with hCD1d tetramers loaded with each of the indicated glycolipids. Representative dot plots generated with PBMCs from one normal donor, with the analog tested indicated at the top of each plot and the percentages of tetramer^+ CD3^+ cells indicated in the top right quadrants. The dot plots show events gating as live lymphocytes (PI negative and FSC/SSC gated lymphocytes). (B) Comparison of tetramer^+ cell frequencies in PBMC from three different donors. The frequencies of cells specifically stained with hCD1d tetramers loaded with the indicated glycolipids (or vehicle (Veh) only (i.e., DMSO)) are shown as the percentage of total iNKT cells (i.e., cells staining with mAb 6B11^+, specific for the invariant TCRα chain of iNKT cells). Similar results were obtained for three additional PBMC donors (not shown). TEXT PRINTED IN THE PICTURE: (A) Vehicle: 0.03 | (A) KRN7000: 0.56 | (A) C20:2: 0.52 | (A) C20:4: 0.58 | (A) Tol: 0.16 | (A) DFB: 0.56 | (A) BB: 0.29 | (A) AD: 0.49 DOUBTS OF THE COPYIST ABOUT THIS PICTURE: Panel A: the numbers in the upper right quadrants are printed without a measure or unit; only the axes (hCD1d tetramer / CD3) are printed

human iNKT cells = details: cited from earlier work
human iNKT cell clones [3] = experiment: Cytokine ELISA of human iNKT cell clones stimulated with glycolipid-pulsed CD1d-transfected HeLa cells; format: cell-based; details: for dose inducing the lowest activation state (IL-13 and GM-CSF secretion): CD1d-transfected Hela cells and dendritic cells as APCs; for iNKT cell clone cytokine response / agonist activity: dose range, IFNγ, IL-4, IL-13, clones HDD3, HDD11, HDE3, HDA7
Method: Capture ELISA assays were used for measurement of cytokine responses of human iNKT cells to αGalCer analogs. One day prior to the experiment, CD1d transfected HeLa cells were plated at 25×10^3 cells/well in 100 µL of medium in flat-bottom 96 well plates. Glycolipids were then added in 100 µL of medium to give final concentrations ranging from 0.05 to 10^4 nM. The APCs were incubated for approximately 18 hours with the glycolipids and then irradiated (10,000 Rad) and washed twice with PBS prior to addition of 25×10^3 iNKT cells well in 300 µL. Supernatants were harvested after 24 hours of co-culture and stored frozen at -20°C. After thawing, aliquots of the supernatants were assayed for specific cytokines by ELISA using capture and biotin-labeled detection antibody pairs specific for GM-CSF, IL-2, IL-4, IL-12p70 and IL-13 (all obtained from BD Biosciences), IFNγ (Thermo-Scientific) or IL-18 (MBL). Specific signals were developed using HRP- conjugated streptavidin (BD Biosciences) and Turbo TMB substrate (Thermo-Scientific). Supernatants were tested pure and/or diluted to give values within a quantitative linear standard curve generated with recombinant cytokines. Curves of dose-dependent cytokine responses and graphs were plotted using the Graphpad Prism Software. EC50 values were calculated using the function log (agonist) response with variable slope, and statistical analyses were carried out using the same software. To calculate concentration-dependent cytokine ratios, IL-4/IFNγ and IL-13/IFNγ ratios were calculated using cytokine values from which background levels (i.e. levels in cultures receiving DMSO vehicle alone) were subtracted. Ratios were calculated by dividing IL-4 or IL-13 concentrations in pg/mL by IFNγ concentration in ng/mL.

[4] = CD1d-transfected HeLa APC, 24 h co-culture, ELISA

SMILES: CCCCC/C=C\C/C=C\CCCCCCCCCC(=O)N[C@@H](CO[C@H]1O[C@H](CO)[C@H](O)[C@H](O)[C@H]1O)[C@H](O)[C@H](O)CCCCCCCCCCCCCC [C20:2]
- agonist strength with Hela-CD1d cells and DC (human iNKT cell clones [1]): strong agonists
- iNKT cell frequencies with loaded tetramers versus staining with Vα24Jα18 specific Ab 6B11 [2]: Comparable iNKT cell frequencies
- agonist activity for human iNKT cells (human iNKT cells): strong agonist
- dose inducing the lowest activation state (IL-13 and GM-CSF secretion) (human iNKT cell clones [3]): < 1 nM
- iNKT cell clone cytokine response / agonist activity (human iNKT cell clones [3]): strong agonist activity

SMILES: CCCCC/C=C\C/C=C\C/C=C\C/C=C\CCCC(=O)N[C@@H](CO[C@H]1O[C@H](CO)[C@H](O)[C@H](O)[C@H]1O)[C@H](O)[C@H](O)CCCCCCCCCCCCCC [C20:4]
- iNKT cell frequencies with loaded tetramers versus staining with Vα24Jα18 specific Ab 6B11 [2]: Comparable iNKT cell frequencies
- EC50 (human iNKT cell clones [3]; Homo sapiens, iNKT, HDD3 clone, IL-4 levels did not reach a plateau): > 10 µM
- iNKT cell clone cytokine response / agonist activity (human iNKT cell clones [3]): substantially lower iNKT cell response

SMILES: CCCCCCCCCCCCCCCCCCCCCCCCCC(=O)N[C@@H](CO[C@H]1O[C@H](CO)[C@H](O)[C@H](O)[C@H]1O)[C@H](O)[C@H](O)CCCCCCCCCCCCCC [KRN7000, reference compound]
- agonist strength with Hela-CD1d cells and DC (human iNKT cell clones [1]): strong agonists
- iNKT cell frequencies with loaded tetramers versus staining with Vα24Jα18 specific Ab 6B11 [2]: Comparable iNKT cell frequencies
- concentration at which IL-13 production was induced (human iNKT cell clones [3]; [4]): ≤ 0.1 nM
- concentration reaching maximal IL-13 production (human iNKT cell clones [3]; [4]): approximately 1 nM
- higher concentration required for IFNγ to be induced and reach plateau, relative to IL-13 (human iNKT cell clones [3]; [4]): approximately 1 log
- concentration saturating IL-4 production (human iNKT cell clones [3]; CD1d-transfected HeLa APC, data not shown): very high KRN7000 concentrations in the µM range
- dose inducing the lowest activation state (IL-13 and GM-CSF secretion) (human iNKT cell clones [3]): < 1 nM
- iNKT cell clone cytokine response / agonist activity (human iNKT cell clones [3]): strong agonist activity
